Experimental data as given in patent publication US9517265B2, “Methods for the prevention and/or treatment of memory impairment” (The Governing Council of the University of Toronto, priority 2010, dated 2016).
Entries after “also recorded” stand apart in the source; their conditions may differ. Read-outs that look alike come from different tables or passages of the source.

Key:
α5GABAARs [1] = molecular target: T1, α5GABAARs (Mus musculus, UniProt P22723+Q8BHJ7); assay: Tonic inhibitory current, whole cell voltage-clamp in cultured hippocampal neurons; assay type: cell-based, mice; parameters: endogenous in cells; host or cells: primary embryonic mouse hippocampal neurons, alone or co-cultured with cortical microglia; conditions: for amplitude of the tonic current: TNF-α 100 ng/ml, n=10, IL-6 10 ng/ml, n=5; for effect on the tonic current (in words): cultured hippocampal neurons
T1 sequence (Q8BHJ7 32-463 limits assumed): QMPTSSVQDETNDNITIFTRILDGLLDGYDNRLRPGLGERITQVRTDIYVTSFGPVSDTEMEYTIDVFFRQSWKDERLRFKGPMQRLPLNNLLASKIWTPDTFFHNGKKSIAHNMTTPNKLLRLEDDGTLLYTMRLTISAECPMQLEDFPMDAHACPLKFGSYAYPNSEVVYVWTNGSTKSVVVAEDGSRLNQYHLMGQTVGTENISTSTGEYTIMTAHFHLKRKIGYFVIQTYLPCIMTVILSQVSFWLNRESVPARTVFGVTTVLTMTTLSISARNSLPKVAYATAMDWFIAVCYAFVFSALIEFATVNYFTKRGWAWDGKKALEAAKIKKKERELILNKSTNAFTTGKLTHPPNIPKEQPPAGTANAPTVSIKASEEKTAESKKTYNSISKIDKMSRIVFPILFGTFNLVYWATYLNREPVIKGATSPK
T1 sequence (P63080 26-473 partner): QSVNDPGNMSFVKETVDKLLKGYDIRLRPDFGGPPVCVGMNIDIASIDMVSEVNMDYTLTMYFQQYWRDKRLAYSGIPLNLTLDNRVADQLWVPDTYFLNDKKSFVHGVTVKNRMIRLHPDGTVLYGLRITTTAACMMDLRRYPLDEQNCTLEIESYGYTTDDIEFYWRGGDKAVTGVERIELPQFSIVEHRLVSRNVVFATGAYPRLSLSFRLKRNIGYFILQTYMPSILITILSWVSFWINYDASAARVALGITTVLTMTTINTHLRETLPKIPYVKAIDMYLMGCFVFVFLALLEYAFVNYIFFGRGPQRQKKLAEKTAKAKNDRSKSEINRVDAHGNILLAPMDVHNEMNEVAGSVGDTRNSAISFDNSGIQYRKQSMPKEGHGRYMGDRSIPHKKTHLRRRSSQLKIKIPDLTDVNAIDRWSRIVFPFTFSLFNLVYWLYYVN
T1 sequence (P22723 39-474): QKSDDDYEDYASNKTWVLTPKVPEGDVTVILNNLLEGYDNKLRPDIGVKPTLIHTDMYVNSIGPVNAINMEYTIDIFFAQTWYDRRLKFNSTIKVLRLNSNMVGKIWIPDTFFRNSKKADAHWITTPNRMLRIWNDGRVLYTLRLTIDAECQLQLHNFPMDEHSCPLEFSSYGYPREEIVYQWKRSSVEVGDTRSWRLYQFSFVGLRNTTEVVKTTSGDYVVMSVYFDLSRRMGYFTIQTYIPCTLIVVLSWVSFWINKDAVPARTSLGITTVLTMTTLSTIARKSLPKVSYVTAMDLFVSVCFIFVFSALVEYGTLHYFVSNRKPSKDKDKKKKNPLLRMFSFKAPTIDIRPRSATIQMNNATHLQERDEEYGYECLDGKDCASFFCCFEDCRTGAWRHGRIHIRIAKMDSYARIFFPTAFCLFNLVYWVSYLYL

α5GABAARs [2] = assay: Tonic current in hippocampal neuron-microglia co-culture; assay type: cell-based, mice; conditions: LPS 100 ng ml^−1 overnight; IL-1ra 250 ng ml^−1
α5GABAARs [3] = molecular target: T1, α5GABAARs; assay: Long-term potentiation of field postsynaptic potentials in hippocampal slices; assay type: cell-based, mice; parameters: endogenous in cells; host or cells: primary embryonic mouse hippocampal neurons, alone or co-cultured with cortical microglia
Description: IL-1β could influence any of several molecular processes that regulate synaptic plasticity^50. The key question is whether α5GABAARs underlie the predominant effect of IL-1β on plasticity. Our working hypothesis is that IL-1β acts via α5GABAARs to inhibit LTP. […] After 3 hours, the mice were sacrificed and the hippocampi harvested. Extracellular field recordings were obtained with a recording electrode placed in the stratum radiatum of the CA1 subfield.
The long-term potentiation (LTP) of evoked field postsynaptic potentials (fPSPs) was studied using previously described methods^29. […] Baseline stimulation frequency was 0.05 Hz. LTP was induced in the slices with theta burst stimulation (TBS), which consisted of 10 stimulus trains at 5 Hz, with each train consisting of 4 pulses at 100 Hz. The fPSPs were monitored for 10 min before TBS and for 60 min after TBS.

[4] = pretreatment before tibial osteotomy; cited from earlier work
postsynaptic GABAARs = assay: Whole-cell currents evoked by exogenous GABA (10 μM) in cultured hippocampal neurons; assay type: cell-based, mice
synaptic GABAARs = assay: Miniature inhibitory postsynaptic currents (mIPSCs) in cultured hippocampal neurons; assay type: cell-based, mice
[5] = rats; cited from earlier work
α5GABAARs [6] = molecular target: T2, α5GABAARs (Mus musculus, UniProt P22723+P63080+Q8BHJ7); conditions: cited from earlier work
T2 construct: host or cells: neurons (mIPSCs and tonic current recorded); preparation not described in this paragraph
T2 sequence (Q8BHJ7 32-463 limits assumed): as the sequence (Q8BHJ7 32-463 limits assumed) above
T2 sequence (P63080 26-473): as the sequence (P63080 26-473 partner) above
T2 sequence (P22723 39-474): as the sequence (P22723 39-474) above

α5GABAARs [7] = molecular target: T1, α5GABAARs; conditions: WT mice, etomidate or etomidate plus L-655,708 30 min prior to training; cited from earlier work
[8] = in vivo; cited from earlier work
α5GABAA receptors [9] = molecular target: α5GABAA receptors (Mus musculus, UniProt P22723+Q8BHJ7); conditions: for effect of the anesthetic on recognition memory, wild-type mice (in words): 24 h after anesthesia
α5GABAA receptors (Mus musculus, UniProt P22723+Q8BHJ7), sequence (Q8BHJ7 32-463 limits assumed): as the sequence (Q8BHJ7 32-463 limits assumed) above
α5GABAA receptors (Mus musculus, UniProt P22723+Q8BHJ7), sequence (P63080 26-473 partner): as the sequence (P63080 26-473 partner) above
α5GABAA receptors (Mus musculus, UniProt P22723+Q8BHJ7), sequence (P22723 39-474): as the sequence (P22723 39-474) above

α5GABAA receptors [10] = molecular target: T3, α5GABAA receptors (Homo sapiens, UniProt P18507+P31644); parameters: host or cells: human volunteers (brain in vivo); conditions: human volunteers, given before ethanol; cited from earlier work
T3 sequence (P31644 32-462): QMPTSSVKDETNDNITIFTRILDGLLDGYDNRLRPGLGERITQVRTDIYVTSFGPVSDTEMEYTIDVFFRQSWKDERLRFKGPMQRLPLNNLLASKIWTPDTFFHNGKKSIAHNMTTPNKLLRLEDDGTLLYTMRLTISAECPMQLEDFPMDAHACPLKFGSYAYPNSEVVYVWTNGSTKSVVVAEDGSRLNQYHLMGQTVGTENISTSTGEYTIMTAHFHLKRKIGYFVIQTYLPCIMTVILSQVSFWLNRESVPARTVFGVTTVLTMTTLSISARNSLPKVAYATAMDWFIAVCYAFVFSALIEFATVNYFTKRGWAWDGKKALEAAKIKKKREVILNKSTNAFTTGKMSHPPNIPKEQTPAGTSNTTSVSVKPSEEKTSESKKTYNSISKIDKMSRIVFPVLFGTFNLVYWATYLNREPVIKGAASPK
T3 sequence (P28472 26-473 partner): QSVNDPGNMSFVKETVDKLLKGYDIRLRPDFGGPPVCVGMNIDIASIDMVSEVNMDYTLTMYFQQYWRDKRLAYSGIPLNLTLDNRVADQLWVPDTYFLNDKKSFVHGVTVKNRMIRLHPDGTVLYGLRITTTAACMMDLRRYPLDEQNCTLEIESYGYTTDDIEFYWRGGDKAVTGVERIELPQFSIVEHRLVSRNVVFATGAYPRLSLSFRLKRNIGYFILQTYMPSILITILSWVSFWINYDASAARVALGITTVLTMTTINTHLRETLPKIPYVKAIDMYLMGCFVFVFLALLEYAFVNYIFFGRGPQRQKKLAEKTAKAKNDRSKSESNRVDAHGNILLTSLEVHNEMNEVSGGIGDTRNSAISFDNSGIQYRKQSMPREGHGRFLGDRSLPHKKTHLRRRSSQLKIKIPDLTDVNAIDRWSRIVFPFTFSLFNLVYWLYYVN
T3 sequence (P18507 40-467 limits assumed): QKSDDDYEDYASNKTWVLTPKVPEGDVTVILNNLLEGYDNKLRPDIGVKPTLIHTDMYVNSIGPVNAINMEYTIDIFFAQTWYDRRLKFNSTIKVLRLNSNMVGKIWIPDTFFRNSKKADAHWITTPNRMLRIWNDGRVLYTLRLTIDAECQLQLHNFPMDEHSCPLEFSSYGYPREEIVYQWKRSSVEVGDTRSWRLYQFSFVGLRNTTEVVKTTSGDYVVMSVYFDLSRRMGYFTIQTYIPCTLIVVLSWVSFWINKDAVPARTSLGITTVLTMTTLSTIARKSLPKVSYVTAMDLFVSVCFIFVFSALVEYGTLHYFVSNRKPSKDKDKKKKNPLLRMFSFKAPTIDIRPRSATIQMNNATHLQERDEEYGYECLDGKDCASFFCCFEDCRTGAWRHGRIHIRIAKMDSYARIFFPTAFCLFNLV

IL-6: pro-inflammatory cytokine
amplitude of the tonic current (α5GABAARs [1]): 96.3%±6.0% | effect on the tonic current (in words) (α5GABAARs [1]): did not modify the tonic conductance in hippocampal neurons

IL-1ra: naturally occurring IL-1 receptor antagonist that blocks the type 1 IL-1 receptor
effect on the tonic current (in words) (α5GABAARs [2]): fully reversed the enhancement of the tonic current | effect on LTP (in words) (α5GABAARs [3]): This inhibition of LTP was abolished by incubating the slices with IL-1ra | LTP, slope of fPSPs (α5GABAARs [3]; slices from LPS-treated WT mice incubated with IL-1ra 100 ng ml^−1 for 1 h, n=10): 126.2%±3.9% | effect on the tonic current (in words) (α5GABAARs [1]): completely blocked by IL-1ra; also recorded: alone had no effect on the tonic or synaptic currents; also recorded: completely blocked both the increase in tonic current and the reduction of synaptic current by IL-1β | postsurgical memory deficits (in words) [4]: no memory deficits were detected | effect on IL-1β inhibition of the GABA-evoked peak current (in words) (postsynaptic GABAARs): this effect could be blocked by IL-1ra | effect on mIPSCs (in words) (synaptic GABAARs): this effect could be blocked by IL-1ra

C[S+]([O-])c1ccc(-c2nc(-c3ccncc3)c(-c3ccc(F)cc3)[nH]2)cc1 (stereo not shown) [SB203,580]
tonic current density (α5GABAARs [1]; IL-1β 20 ng ml^−1 20 min with or without SB203,580 20 μM 30 min): 1.0±0.1 pA pF^−1 | effect on the tonic current (in words) (α5GABAARs [1]): completely blocked the IL-1β-induced increase in the tonic current | effect on IL-1β inhibition of the GABA-evoked peak current (in words) (postsynaptic GABAARs): had no effect on inhibition of the GABA-evoked peak current by IL-1β | effect on mIPSCs (in words) (synaptic GABAARs): did not modify IL-1β inhibition of miniature IPSCs

TNF-α
amplitude of the tonic current (α5GABAARs [1]): 104.1%±12.1% | effect on the tonic current (in words) (α5GABAARs [1]): did not modify the tonic conductance in hippocampal neurons

FC(F)OC(F)C(F)(F)F (stereo not shown) [desflurane]
threshold concentration that impaired memory performance during fear conditioning [5]: 0.44%

CCc1nc(-c2ccc(OC)cc2)[nH]c1-c1ccncc1 [SB202,474]
effect on the tonic current (in words) (α5GABAARs [1]): had no effect on the tonic current

COc1ccc(-c2ccc(=N)n(CCCC(=O)O)n2)cc1 [gabazine]
effect on the tonic current (in words) (α5GABAARs [1]): selectively inhibits the synaptic but not tonic current

Cc1ncc2n1-c1ccc(Cl)cc1C(c1ccccc1F)=NC2 [Midazolam, midazolam]
increase in charge transfer for the tonic current relative to that for mIPSCs (α5GABAARs [6]): 7-21 fold

CCOC(=O)c1cncn1[C@H](C)c1ccccc1 [etomidate]
effect on the tonic current (in words) (α5GABAARs [1]): selectively potentiate the tonic current; also recorded: increased the amplitude of the tonic current; also recorded: produced a supra-additive increase in the tonic current | contextual fear memory, freezing score (in words) (α5GABAARs [7]): reduced the freezing score

FC(F)(F)C(Cl)Br (stereo not shown) [halothane]
threshold concentration that impaired memory performance during fear conditioning [5]: 0.3%

O=c1cc(N2CCOCC2)oc2c(-c3ccccc3)cccc12 [LY294,002]
effect on the tonic current (in words) (α5GABAARs [1]): had no effect on the IL-1β-induced increase in tonic current | effect on IL-1β inhibition of the GABA-evoked peak current (in words) (postsynaptic GABAARs): completely prevented IL-1β-dependent inhibition of the GABA-evoked peak current; also recorded: alone had no effect on the GABA-evoked peak responses

CC(C)c1cccc(C(C)C)c1O [propofol]
increase in charge transfer for the tonic current relative to that for mIPSCs (α5GABAARs [6]): 6-33 fold

CNC(=O)c1cc2c(cn1)[nH]c1ccccc12 [FG 7142]
convulsant / anxiogenic properties (in words) [8]: have epileptogenic and anxiogenic properties

FCOC(C(F)(F)F)C(F)(F)F [sevoflurane]
threshold concentration that impaired memory performance during fear conditioning [5]: 0.3% | effect of the anesthetic on recognition memory, wild-type mice (in words) (α5GABAA receptors [9]): did not learn the task | effect of the anesthetic on recognition memory, wild-type mice (in words) (α5GABAA receptors [9]; listed as Sevoflurane): caused memory deficits 24 h after anesthesia | exploratory behavior during the training phase (α5GABAA receptors [9]; 24 h after sevoflurane): 23.45 ± 3.88 s | time with familiar object (α5GABAA receptors [9]; 24 h after sevoflurane): 13.13±1.95 | time with novel object (α5GABAA receptors [9]; 24 h after sevoflurane): 15.41±2.25 | discrimination ratio, short-term memory (α5GABAA receptors [9]; 24 h after sevoflurane 2.3% 1 h): 0.53±0.03

Cc1cc(-c2nnc3c4ccccc4c(OCc4cn(C)nn4)nn23)no1 [α5IA]
ethanol-induced memory impairment (in words) (α5GABAA receptors [10]): reversed memory impairment for word-list learning after the ingestion of ethanol; also recorded: attenuated ethanol-induced impairment of word recall
